From patent US6433188B1, “Fused heteroaromatic glucokinase activators” (priority 2000, dated 2002) come the findings set out here.

Some results are limits rather than exact numbers.

As to `CS(=O)(=O)c1ccc(C(CC2CCCC2)C(=O)Nc2ccc3ccccc3n2)cc1C#N` (stereo not drawn) [Example 29, 2-(3-Cyano-4-methanesulfonyl-phenyl)-3-cyclopentyl-N-quinolin-2-yl-propionamide], the melting point – broadly, the temperature of the solid-liquid transition – lay in the range of 95 to 99 °C.

Compound `O=C(Nc1nc2ccccc2[nH]1)C(CC1CCCC1)c1ccc(Cl)c(Cl)c1` (stereo not drawn) [Example 8, N-(1H-Benzimidazol-2-yl)-3-cyclopentyl-2-(3,4-dichloro-phenyl)-propionamide] gave a melting point of 193.4 to 196.8 °C. Then `CS(=O)(=O)c1ccc(C(CC2CCCC2)C(=O)Nc2nc3ccccc3s2)cc1[N+](=O)[O-]` (stereo not drawn) [Example 32, N-Benzothiazol-2-yl-3-cyclopentyl-2-(4-methanesulfonyl-3-nitro-phenyl)-propionamide], with 108 to 113 °C; and `CS(=O)(=O)c1ccc(C(CC2CCCC2)C(=O)Nc2ccc3ccccc3n2)cc1C(F)(F)F` (stereo not drawn) [Example 30, 3-Cyclopentyl-2-(4-methanesulfonyl-3-trifluoromethyl-phenyl)-N-quinolin-2-yl-propionamide], with 90 to 95 °C; and `CS(=O)(=O)c1ccc(C(CC2CCCC2)C(=O)Nc2nc3ccccc3o2)cc1[N+](=O)[O-]` (stereo not drawn) [Example 33, N-Benzoxazol-2-yl-3-cyclopentyl-2-(4-methanesulfonyl-3-nitro-phenyl)-propionamide], with 106 to 111 °C. In turn, `CS(=O)(=O)c1ccc(C(CC2CCCC2)C(=O)Nc2nc3ccccc3[nH]2)cc1C#N` (stereo not drawn) [Example 28, N-(1H-Benzimidazol-2-yl)-2-(3-cyano-4-methanesulfonyl-phenyl)-3-cyclopentyl-propionamide] showed a melting point of 148 to 152 °C.

Regarding `CS(=O)(=O)c1ccc(C(CC2CCCC2)C(=O)Nc2nc3ccccc3s2)cc1C#N` (stereo not drawn) [Example 26, N-Benzothiazol-2-yl-2-(3-cyano-4-methanesulfonyl-phenyl)-3-cyclopentyl-propionamide], the melting point lay within 115 to 118 °C. Then `CS(=O)(=O)c1ccc(C(CC2CCCC2)C(=O)Nc2nc3ccccc3[nH]2)cc1[N+](=O)[O-]` (stereo not drawn) [Example 34, N-(1H-Benzimidazol-2-yl)-3-cyclopentyl-2-(4-methanesulfonyl-3-nitro-phenyl)-propionamide], with 113 to 117 °C; and `O=C(Nc1ccc2ccccc2n1)C(CC1CCCC1)c1ccc(Cl)c(Cl)c1` (stereo not drawn) [Example 10, 3-Cyclopentyl-2-(3,4-dichloro-phenyl)-N-quinolin-2-yl-propionamide], with 172 to 173 °C. Then `O=C(Nc1nc2c(s1)CCCC2)C(CC1CCCC1)c1ccc(Cl)c(Cl)c1` (stereo not drawn) [Example 1, 3-Cyclopentyl-2-(3,4-dichloro-phenyl)-N-(4,5,6,7-tetrahydro-benzothiazol-2-yl)-propionamide], with 170 to 171 °C; and `O=C(Nc1nc2ccccc2s1)C(CC1CCCC1)c1ccc(Cl)c(Cl)c1` (stereo not drawn) [Example 2, N-Benzothiazol-2-yl-3-cyclopentyl-2-(3,4-dichloro-phenyl)-propionamide], with 104 to 105 °C.

Regarding `CS(=O)(=O)c1ccc(C(CC2CCCC2)C(=O)Nc2ccc3ccccc3n2)cc1[N+](=O)[O-]` (stereo not drawn) [Example 35, 3-Cyclopentyl-2-(4-methanesulfonyl-3-nitro-phenyl)-N-quinolin-2-yl-propionamide], the melting point was in the range of 102 to 106 °C. Then `CS(=O)(=O)c1ccc(C(CC2CCCC2)C(=O)Nc2nc3ccccc3o2)cc1C#N` (stereo not drawn) [Example 27, N-Benzoxazol-2-yl-2-(3-cyano-4-methanesulfonyl-phenyl)-3-cyclopentyl-propionamide], with 108 to 112 °C; and `CS(=O)(=O)c1ccc(C(CC2CCCC2)C(=O)Nc2nc3ccccc3s2)cc1` (stereo not drawn) [Example 12(A), N-Benzothiazol-2-yl-3-cyclopentyl-2-(4-methanesulfonyl-phenyl)-propionamide], with 206 to 209 °C; and `O=C(Nc1nc2ccc(F)cc2s1)C(CC1CCCC1)c1ccc(Cl)c(Cl)c1` (stereo not drawn) [Example 4, 3-Cyclopentyl-2-(3,4-dichloro-phenyl)-N-(6-fluoro-benzothiazol-2-yl)-propionamide], with 131 to 133 °C.

For `CS(=O)(=O)c1ccc(C(CC2CCCC2)C(=O)Nc2ccc3ccccc3n2)cc1Br` (stereo not drawn) [Example 25, 2-(3-Bromo-4-methanesulfonyl-phenyl)-3-cyclopentyl-N-quinolin-2-yl-propionamide], the melting point lay in the range of 95 to 100 °C. Then `CS(=O)(=O)c1ccc([C@@H](CC2CCCC2)C(=O)Nc2nc3ccccc3s2)cc1` [Example 14, N-Benzothiazol-2-yl-3-cyclopentyl-2(R)-(4-methanesulfonyl-phenyl)-propionamide], with 100 to 105 °C. Then `CS(=O)(=O)c1ccc([C@@H](CC2CCCC2)C(=O)Nc2nc3ccccc3[nH]2)cc1Cl` [Example 21, N-(1H-Benzimidazol-2-yl)-2(R)-(3-chloro-4-methanesulfonyl-phenyl)-3-cyclopentyl-propionamide], with over 215 °C; and `CS(=O)(=O)c1ccc([C@@H](CC2CCCC2)C(=O)Nc2nc3ccccc3[nH]2)cc1` [Example 13, N-(1H-Benzimidazol-2-yl)-3-cyclopentyl-2(R)-(4-methanesulfonyl-phenyl)-propionamide], with 230 to 232 °C. Then `CS(=O)(=O)c1ccc(C(CC2CCCC2)C(=O)Nc2nc3ccccc3s2)cc1C(F)(F)F` (stereo not drawn) [Example 31(A), N-Benzothiazol-2-yl-3-cyclopentyl-2-(4-methanesulfonyl-3-trifluoromethyl-phenyl)-propionamide], with 105 to 110 °C; and `CS(=O)(=O)c1ccc(C(CC2CCCC2)C(=O)Nc2nc3ccccc3[nH]2)cc1Br` (stereo not drawn) [Example 24(A), N-(1H-Benzimidazol-2-yl)-2-(3-bromo-4-methanesulfonyl-phenyl)-3-cyclopentyl-propionamide], with over 220 °C.
